10 compounds from ChEMBL document CHEMBL1201862, “PubChem BioAssay data set” (2004) can be followed below.

Common to all, as to assay: inhibition of tumour cell growth, NCI panel, 48 h
The subject of assay [1] is CAKI-1.
Assay [2] relates to CCRF-CEM.
Assay [3] relates to COLO 205.
Assay [4] relates to DU-145.
In assay [5] the test system is HCC 2998.
Assay [6] deals with K562.
Assay [7] deals with MDA-MB-435.
Assay [8] has as its system Malme-3M.
The test system of assay [9] is NCI-H460.
Assay [10] concerns OVCAR-4.
The test system of assay [11] is OVCAR-8.
Assay [12] deals with PC-3.
The subject of assay [13] is RXF 393.
Assay [14] has as its system SK-MEL-5.
In assay [15] the test system is SK-OV-3.
Assay [16] has as its system SNB-19.
Assay [17] concerns SNB-75.
The subject of assay [18] is TK-10.
Assay [19] deals with U-251.
Assay [20] has as its system UO-31.

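Grown in 96-well plates, cells were treated for 48 hours with each compound at five concentrations. Insufficient inhibition: endpoint recorded as highest concentration tested. At the GI50, growth is halved.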 The source made the active and inactive calls. No stated cut-off is given here; in the data, active = GI50 up to about 1.1 µM and inactive = higher. A value given as a limit tells only on which side of the number the result lay.

In the case of `CC(C)C1=C(Cc2ccccc2)C(=O)O/C1=C\c1ccc(O)c(Cl)c1`, the GI50 in assay [1] is 18.6 µM (inactive); in [2], 15.5 µM (inactive); in assay [3], 20.4 µM (inactive); in [4] it was 18.2 µM (inactive); in assay [5], 14.6 µM (inactive); in assay [6] it was 16 µM (inactive). Further, the GI50 in assay [7] is 17 µM (inactive); in assay [8], 15.8 µM (inactive); in assay [9] it was 17.4 µM (inactive); in assay [10], 14.7 µM (inactive); in assay [11], 18.3 µM (inactive); in assay [12], 17.9 µM (inactive). Besides, the GI50 in assay [13] was 17.5 µM (inactive); in assay [14] it was 16.7 µM (inactive); in assay [15], 19.5 µM (inactive); in assay [16] it was 11.5 µM (inactive); in assay [17], 16.9 µM (inactive); in assay [18] it was 17.7 µM (inactive). Moreover, the GI50 in [19] was 16.7 µM (inactive); in [20], 14.4 µM (inactive).
As for `CC(=O)O[C@H]1C(=O)[C@@]2(C)[C@H]([C@H](OC(=O)c3ccccc3)[C@]3(O)C[C@H](OC(=O)[C@H](O)[C@@H](NC(=O)c4ccccc4)c4ccc5ccccc5c4)C(C)=C1C3(C)C)[C@]1(OC(C)=O)CO[C@@H]1C[C@@H]2O`, the GI50 in assay [1] is 1.59 µM (inactive); in [2], 0.0287 µM (active); in assay [3], 0.0787 µM (active); in assay [4], 0.1 µM (active); in assay [5], 0.0457 µM (active); in assay [6], 0.029 µM (active). Also, the GI50 is 0.00993 µM (active) in assay [7]; 0.179 µM (active) in assay [8]; 0.0706 µM (active) in assay [9]; 0.841 µM (active) in [10]; 0.091 µM (active) in assay [11]; 0.0553 µM (active) in assay [12]. For the same compound, the GI50 was 0.219 µM (active) in assay [13]; 0.0685 µM (active) in assay [14]; 0.0248 µM (active) in assay [15]; 0.279 µM (active) in assay [16]; 0.0594 µM (active) in [17]; 0.506 µM (active) in assay [18]. Moreover, the GI50 is 0.0692 µM (active) in assay [19] and 2.39 µM (inactive) in assay [20].
Turning to `O=C(OCC1OC(c2nn[nH]n2)C(OC(=O)c2ccccc2)C1OC(=O)c1ccccc1)c1ccccc1` (centres undefined), the GI50 in assay [1] was > 100 µM (inactive); in assay [2], 96.6 µM (inactive); in assay [3] it was > 100 µM (inactive); in [4] it was > 100 µM (inactive); in assay [5] it was > 100 µM (inactive); in assay [6] it was 46.2 µM (inactive). Moreover, the GI50 in [7] was > 100 µM (inactive); in assay [8], > 100 µM (inactive); in [9] it was 71 µM (inactive); in [10], > 100 µM (inactive); in [11] it was > 100 µM (inactive); in assay [12], > 100 µM (inactive). In addition, the GI50 in assay [13] is 41.9 µM (inactive); in assay [14], > 100 µM (inactive); in [15] it was > 100 µM (inactive); in [16] it was 32.7 µM (inactive); in assay [17] it was 57 µM (inactive); in assay [18], > 100 µM (inactive). The GI50 in assay [19] and in [20] was > 100 µM (inactive) in each case.
For the compound `CCOC(=O)c1c(N2CCOCC2)[nH]c(=O)c(C(c2ccc(N(C)C)cc2)c2c(O)c(C(=O)OCC)c(N3CCOCC3)[nH]c2=O)c1O`, the GI50 is > 100 µM (inactive) in assay [1]; 54.2 µM (inactive) in assay [2]; > 100 µM (inactive) in assay [3]; > 100 µM (inactive) in [4]; > 100 µM (inactive) in assay [5]; > 100 µM (inactive) in [6]. Besides, the GI50 in assay [7], in assay [8], in assay [9], in [10], in assay [11] and in assay [12] was > 100 µM (inactive) throughout. In addition, the GI50 in [13], in [14], in assay [15], in [16], in assay [17] and in [18] was > 100 µM (inactive) throughout. For the same compound, the GI50 in assay [19] and in [20] was > 100 µM (inactive) throughout.
As for `O=[N+]([O-])c1cc(-[n+]2cc([O-])on2)ccc1F`, the GI50 in [1] was 2.11 µM (inactive); in [2], 11.8 µM (inactive); in assay [3] it was 17.7 µM (inactive); in assay [4], 12.8 µM (inactive); in assay [5], 14.4 µM (inactive); in assay [6] it was 34.4 µM (inactive). In addition, the GI50 in assay [7] was 16.2 µM (inactive); in assay [8], 14.7 µM (inactive); in [9], 18.5 µM (inactive); in [10] it was 11.9 µM (inactive); in assay [11], 16.4 µM (inactive); in assay [12], 18.4 µM (inactive). Also, the GI50 was 14.1 µM (inactive) in assay [13]; 15 µM (inactive) in [14]; 20.4 µM (inactive) in assay [15]; 7.82 µM (inactive) in [16]; 13.7 µM (inactive) in assay [17]; 18.4 µM (inactive) in assay [18]. The GI50 is 18.1 µM (inactive) in assay [19] and 3.58 µM (inactive) in assay [20].
As to `NC1CC(=O)c2csc(Cl)c21` (centres undefined), the GI50 in [1] is 1.86 µM (inactive); in assay [2], 0.778 µM (active); in assay [3], 5.32 µM (inactive); in assay [4] it was 8.11 µM (inactive); in [5] it was 17.6 µM (inactive); in [6], 2.74 µM (inactive). Also, the GI50 in [7] was 12.8 µM (inactive); in assay [8] it was 2.68 µM (inactive); in [9], 22.5 µM (inactive); in assay [10] it was 25.9 µM (inactive); in assay [11] it was 6.61 µM (inactive); in [12], 10.1 µM (inactive). Besides, the GI50 was 5.78 µM (inactive) in assay [13]; 18.5 µM (inactive) in assay [14]; 17.3 µM (inactive) in assay [15]; 17.5 µM (inactive) in assay [16]; 17.3 µM (inactive) in [17]; 11.5 µM (inactive) in assay [18]. Further, the GI50 in assay [19] was 8.51 µM (inactive); in [20], 5.75 µM (inactive).
As to `O=C1/C(=C/c2ccccc2)CCc2ccccc21`, the GI50 is 17.7 µM (inactive) in assay [1]; 4.02 µM (inactive) in assay [2]; 19.6 µM (inactive) in [3]; 16.2 µM (inactive) in assay [4]; 16.3 µM (inactive) in assay [5]; 6.97 µM (inactive) in [6]. For the same compound, the GI50 is 14.8 µM (inactive) in [7]; 16.6 µM (inactive) in assay [8]; 26.1 µM (inactive) in assay [9]; 14.8 µM (inactive) in [10]; 25.6 µM (inactive) in [11]; 19 µM (inactive) in assay [12]. Besides, the GI50 in assay [13] is 15.2 µM (inactive); in [14], 17.7 µM (inactive); in assay [15], 25.6 µM (inactive); in assay [16], 10.4 µM (inactive); in assay [17] it was 17.3 µM (inactive); in assay [18], 15.2 µM (inactive). In addition, the GI50 in assay [19] is 16.2 µM (inactive); in assay [20] it was 14.6 µM (inactive).
Regarding `O=c1oc2ccc3ccccc3c2cc1-c1nc2ccccc2o1`, the GI50 in assay [1] is 17.1 µM (inactive); in assay [2], 37.7 µM (inactive); in [3], 53.5 µM (inactive); in assay [4], 20.7 µM (inactive); in assay [5], 61.1 µM (inactive); in assay [6], 58.3 µM (inactive). For the same compound, the GI50 in assay [7] was 23.2 µM (inactive); in assay [8] it was 13.7 µM (inactive); in assay [9] it was 27.5 µM (inactive); in assay [10] it was 21 µM (inactive); in assay [11], 23.2 µM (inactive); in assay [12], 28.1 µM (inactive). For the same compound, the GI50 in assay [13] is 16.1 µM (inactive); in [14], 25.9 µM (inactive); in [15] it was 25.6 µM (inactive); in [16], 19.7 µM (inactive); in [17] it was 17.5 µM (inactive); in assay [18], > 52.1 µM (inactive). Moreover, the GI50 in [19] was 22.2 µM (inactive); in [20], 30.9 µM (inactive).
As for `Cc1ccc2cccc3c2c1CC1(C3=O)S(=O)(=O)OCCOS1(=O)=O`, the GI50 in assay [1], in assay [2], in assay [3], in [4], in assay [5] and in assay [6] was > 100 µM (inactive) throughout. The GI50 in assay [7], in [8], in assay [9], in [10], in [11] and in [12] was > 100 µM (inactive) each time. Also, the GI50 in [13], in assay [14], in [15], in assay [16], in assay [17] and in assay [18] was > 100 µM (inactive) throughout. For the same compound, the GI50 in [19] and in assay [20] was > 100 µM (inactive) each time.
With `CNC(=O)c1nnn(C2CCCCC2)c1S`, the GI50 in assay [1], in assay [2], in [3], in [4], in assay [5] and in assay [6] was > 100 µM (inactive) each time. For the same compound, the GI50 in assay [7], in assay [8], in [9], in [10], in assay [11] and in assay [12] was > 100 µM (inactive) throughout. Further, the GI50 in assay [13], in assay [14], in [15], in assay [16], in assay [17] and in assay [19] was > 100 µM (inactive) throughout. Also, in assay [20], the GI50 was > 100 µM (inactive).
